Like-named read-outs stand apart in the source and are kept apart here.

The conditions of data set [1]: in vivo.
The conditions of data set [2]: cited from earlier work.
Data set [3] in a line: Evaluation of various buffering systems on human skin. As to conditions: sensitive, healthy or eczema affected skin.

For the compound `O=C(O)CC(O)(CC(=O)O)C(=O)O` [Citric acid], in data set [1], the “skin irritation / tolerability” value is “well tolerated on healthy and eczema affected skin”.

`O=C(O)[C@H](O)[C@@H](O)[C@H](O)[C@H](O)CO` [Gluconic acid]: the “skin irritation / tolerability” value in data set [1] was “well tolerated on healthy and eczema affected skin”.

In the case of `N[C@@H](CC(=O)O)C(=O)O` [aspartic acid], the pKa entry in data set [2] was “around 3.65”.

Consider `O=C(O)CO` [glycolic acid], for which, in data set [3], the “skin irritation / tolerability” value is reported as “may be irritating for sensitive skin”.

As to `CC(O)C(=O)O` (centres unmarked) [lactic acid], the “skin irritation / tolerability” value in data set [1] is on record as “may be irritating for sensitive skin”.

The values above are taken from patent US12616669B2, “Methods and chemical compositions for treating skin conditions by providing long lasting skin pH control for improving skin barrier function” (Soteri Skin, Inc., priority 2021, dated 2026).
